Source: ChEMBL document CHEMBL1275446, “Stronger activity of human immunodeficiency virus type 1 protease inhibitors against clinical isolates of Plasmodium vivax than against those of P. falciparum” (Antimicrob Agents Chemother, 2008)
Values belong to the compound of their own block, whether it stands above or below them.

What was measured:
Plasmodium falciparum [1] = test: Antimicrobial activity against Plasmodium falciparum at ring stage; format: functional, organism-based
Plasmodium falciparum [2] = test: Antimicrobial activity against Plasmodium falciparum harboring single copy of Pfmdr1 gene
Plasmodium vivax [3] = test: Antimicrobial activity against Plasmodium vivax harboring amplified Pvmdr1 gene; format: functional, organism-based
Plasmodium vivax [4] = test: Antimicrobial activity against Plasmodium vivax harboring single copy of Pvmdr1 gene; format: functional, organism-based
Plasmodium falciparum [5] = test: Antimicrobial activity against Plasmodium falciparum harboring amplified Pfmdr1 gene
Plasmodium vivax [6] = test: Antimicrobial activity against Plasmodium vivax at ring stage
Plasmodium vivax [7] = test: Antimicrobial activity against Plasmodium vivax at trophozoite stage; format: functional, organism-based

- IC50 (Plasmodium falciparum [1]): 9660 nM
SMILES: CC(C)c1nc(CN(C)C(=O)N[C@H](C(=O)N[C@@H](Cc2ccccc2)C[C@H](O)[C@H](Cc2ccccc2)NC(=O)OCc2cncs2)C(C)C)cs1 [RITONAVIR]

- IC50 (Plasmodium falciparum [1]): 8300 nM
SMILES: CC(C)(C)NC(=O)[C@@H]1C[C@@H]2CCCC[C@@H]2CN1C[C@@H](O)[C@H](Cc1ccccc1)NC(=O)[C@H](CC(N)=O)NC(=O)c1ccc2ccccc2n1

SMILES: OC(c1cc(C(F)(F)F)nc2c(C(F)(F)F)cccc12)C1CCCCN1 (centres undefined) [MEFLOQUINE]
- IC50 (Plasmodium falciparum [1]): 137 nM
- IC50 (Plasmodium falciparum [2]): 77 nM
- IC50 (Plasmodium vivax [3]): 176 nM
- IC50 (Plasmodium vivax [4]): 43 nM
- IC50 (Plasmodium falciparum [5]): 182 nM

- IC50 (Plasmodium vivax [6]): 38 nM
- IC50 (Plasmodium vivax [7]): 442 nM
SMILES: CCN(CC)CCCC(C)Nc1ccnc2cc(Cl)ccc12 (centres undefined) [CHLOROQUINE]
